# Experimental data as given in patent US10112940B2, “Histone demethylase inhibitors” (Celgene Quanticel Research, Inc., priority 2014, dated 2018).
# pIC50: −log10 of the molar value. Like-named read-outs stand apart in the source and are kept apart here.
# What was measured:
# [1] = test system: KYSE-150 esophageal carcinoma cell line; test: In vitro cell-based assay: BrdU incorporation cell proliferation ELISA; set-up: species or system human; settings: KYSE-150 cells, 168 hours compound incubation, read-out: Cellular IC50
# Protocol: Cell lines tested include the JMJD2C gene amplified cell line KYSE-150. This is a quantitative ELISA assay measuring DNA incorporation of BrdU during S-phase as a direct readout of cellular proliferation.
# Assay Principle: This is a colorimetric immunoassay for the quantification of cell proliferation. Cells treated for 168 hours with test compounds are assayed for their ability to go through S-phase as a measure of their proliferative potential.
# Assay Method: The human KYSE-150 (SMAD4 mut, TP53 mut) esophageal carcinoma cell line was seeded at 2,000 cells/well on a 96-well tissue culture treated plate. After an overnight incubation, cells were treated with compound in an 11-point dilution series with final concentrations ranging from 100 μM to 2 nM. Cells were then incubated in the presence of compound for 168 hours. After compound incubation the cells were assayed using a BrdU Cell Proliferation ELISA (Roche). The cells were first incubated with BrdU labeling reagent for 2 hours. After 2 hours, the BrdU incorporated cells were fixed and denatured, probed with an anti-BrdU-Peroxidase antibody for 1.5 hours and washed. Finally, a tetramethylbenzidine peroxidase substrate was added to each well for 15 minutes followed by a H2SO4 stop solution. The plate was read at 450 nm, and the raw optical density data was transferred into XLFit (IDBS) for IC50 calculation using the formula: fit=(D+((Vmax*(x^n))/((x^n)+(Km^n))))
# Table 4 provides the cellular IC50 values of various compounds disclosed herein.
# [2] = target: JMJD2C (Homo sapiens (Human), UniProt Q9H3R0); test: JMJD2C in vitro enzyme inhibition assay (TR-FRET); format: biochemical; settings: 0.3 nM JMJD2C, 300 nM H3K9me3-biotin peptide, 2 μM alpha-ketoglutaric acid, 30 minutes
# JMJD2C, sequence (Q9H3R0 2-372): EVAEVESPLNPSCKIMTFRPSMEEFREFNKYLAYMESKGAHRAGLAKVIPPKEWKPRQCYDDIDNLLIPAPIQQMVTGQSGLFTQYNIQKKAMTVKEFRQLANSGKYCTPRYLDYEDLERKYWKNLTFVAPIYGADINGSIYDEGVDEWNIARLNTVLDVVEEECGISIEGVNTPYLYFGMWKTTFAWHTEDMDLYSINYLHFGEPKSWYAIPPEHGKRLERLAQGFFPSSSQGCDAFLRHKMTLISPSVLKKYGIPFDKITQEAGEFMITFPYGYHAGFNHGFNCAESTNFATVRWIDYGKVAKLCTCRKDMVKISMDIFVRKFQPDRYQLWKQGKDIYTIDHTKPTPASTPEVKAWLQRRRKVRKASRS
# Protocol: This assay determines the ability of a test compound to inhibit JMJD2C demethylase activity. Baculovirus expressed JMJD2C (GenBank Accession #BC143571, AA 2-372) was purchased from BPS Bioscience (Cat#50105).
# The ability of test compounds to inhibit the activity of JMJD2C was determined in 384-well plate format under the following reaction conditions: 0.3 nM JMJD2C, 300 nM H3K9me3-biotin labeled peptide (Anaspec cat #64360), 2 μM alpha-ketoglutaric acid in assay buffer of 50 mM HEPES, pH7.3, 0.005% Brij35, 0.5 mM TCEP, 0.2 mg/ml BSA, 50 μM sodium L-ascorbate, and 2 μM ammonium iron(II) sulfate. Reaction product was determined quantitatively by TR-FRET after the addition of detection reagent Phycolink Streptavidin-allophycocyanin (Prozyme) and Europium-anti-di-methylated histone H3 lysine 9 (H3K9me2) antibody (PerkinElmer) in the presence of 5 mM EDTA in LANCE detection buffer (PerkinElmer) at a final concentration of 50 nM and 1 nM, respectively.
# The assay reaction was initiated by the following: 2 μl of the mixture of 900 nM H3K9me3-biotin labeled peptide and 6 μM alpha-ketoglutaric acid with 2 μl of 11-point serial diluted inhibitor in 3% DMSO were added to each well of the plate, followed by the addition of 2 μl of 0.9 nM JMJD2C to initiate the reaction. The reaction mixture was incubated at room temperature for 30 minutes, and terminated by the addition of 6 μl of 5 mM EDTA in LANCE detection buffer containing 100 nM Phycolink Streptavidin-allophycocyanin and 2 nM Europium-anti-H3K9me2 antibody. Plates were read by EnVisionMultilabel Reader in TR-FRET mode (excitation at 320 nm, emission at 615 nm and 665 nm) after 1 hour incubation at room temperature. A ratio was calculated (665/615) for each well and fitted to determine inhibition constant (IC50).
# The ability of the compounds disclosed herein to inhibit demethylase activity was quantified and the respective IC50 value was determined. Table 3 provides the IC50 values of various compounds disclosed herein.
pIC50 ([1]; Homo sapiens),pIC50 [2],SMILES,pIC50 [1]
≥ 7.00,5.00 to 6.00,"CC[C@H](C)c1ccc(N(C)c2ccc(Oc3nc(O)c4ccncc4n3)cc2)cc1 [Example 77, 2-[4-[4-[(2S)-butan-2-yl]-N-methylanilino]phenoxy]pyrido[3,4-d]pyrimidin-4-ol]",–
6.00 to 7.00,6.00 to 7.00,"Cc1ccc(N(C)c2ccc(Oc3nc(O)c4ccncc4n3)cc2)nc1 [Example 43, 2-[4-[methyl-(5-methylpyridin-2-yl)amino]phenoxy]pyrido[3,4-d]pyrimidin-4-ol]",–
< 5.00,6.00 to 7.00,"CN(c1ccc(Oc2nc(O)c3ccncc3n2)cc1)c1cncc(N2CCOCC2)c1 [Example 27, 2-{4-[methyl-(5-morpholin-4-yl-pyridin-3-yl)-amino]-phenoxy}-pyrido[3,4-d]pyrimidin-4-ol]",–
6.00 to 7.00,6.00 to 7.00,"Oc1nc(Oc2ccc3c(ccn3CCc3ccccc3)c2)nc2cnccc12 [Example 3, 2-(1-Phenethyl-1H-indol-5-yloxy)-pyrido[3,4-d]pyrimidin-4-ol]",–
< 5.00,6.00 to 7.00,"CN1CCN(c2ccc(N(C)c3ccc(Oc4nc(O)c5ccncc5n4)cc3)cc2)CC1 [Example 46, 2-[4-[N-methyl-4-(4-methylpiperazin-1-yl)anilino]phenoxy]pyrido[3,4-d]pyrimidin-4-ol]",–
≥ 7.00,5.00 to 6.00,"CC(C)c1ccc(N(C)c2ccc(Oc3nc(O)c4ccncc4n3)cc2)cc1 [Example 85, 2-[4-(N-methyl-4-propan-2-ylanilino)phenoxy]pyrido[3,4-d]pyrimidin-4-ol]",–
≥ 7.00,6.00 to 7.00,"CC(CC#N)c1ccc(N(C)c2ccc(Oc3nc(O)c4ccncc4n3)cc2)cc1 (stereo not shown) [Example 30, 3-(4-{[4-(4-hydroxy-pyrido[3,4-d]pyrimidin-2-yloxy)-phenyl]-methyl-amino}-phenyl)-butyronitrile]",–
< 5.00,6.00 to 7.00,"CN(c1ccc(C#N)cc1)c1ccc(Oc2nc(O)c3ccncc3n2)cc1 [Example 81, 4-[4-(4-hydroxypyrido[3,4-d]pyrimidin-2-yl)oxy-N-methylanilino]benzonitrile]",–
6.00 to 7.00,6.00 to 7.00,"CCN(c1ccccc1)c1ccc(Oc2nc(O)c3ccncc3n2)cc1 [Example 80, 2-[4-(N-ethylanilino)phenoxy]pyrido[3,4-d]pyrimidin-4-ol]",–
6.00 to 7.00,5.00 to 6.00,"CN(c1ccc(Oc2nc(O)c3ccncc3n2)cc1)c1ccc(N2CCCC2)cc1 [Example 49, 2-[4-(N-methyl-4-pyrrolidin-1-ylanilino)phenoxy]pyrido[3,4-d]pyrimidin-4-ol]",–
< 5.00,6.00 to 7.00,"CN(c1ccc(Oc2nc(O)c3ccncc3n2)cc1)c1ccc2nn(C)cc2c1 [Example 82, 2-[4-[methyl-(2-methylindazol-5-yl)amino]phenoxy]pyrido[3,4-d]pyrimidin-4-ol]",–
5.00 to 6.00,6.00 to 7.00,"CN(c1ccc(Oc2nc(O)c3ccncc3n2)cc1)c1ccccn1 [Example 1, 2-[4-(Methyl-pyridin-2-yl-amino)-phenoxy]-pyrido[3,4-d]pyrimidin-4-ol]",–
< 5.00,≥ 7.00,"CN(c1ccc(Oc2nc(O)c3ccncc3n2)cc1)c1cccc(N2CCC(N)CC2)c1 [Example 50, 2-[4-[3-(4-aminopiperidin-1-yl)-N-methylanilino]phenoxy]pyrido[3,4-d]pyrimidin-4-ol]",–
5.00 to 6.00,6.00 to 7.00,"CN(c1ccc(Oc2nc(O)c3ccncc3n2)cc1)c1ccc(N2CCC(N)CC2)cc1 [Example 23, 2-(4-{[4-(4-amino-piperidin-1-yl)-phenyl]-methyl-amino}-phenoxy)-pyrido[3,4-d]pyrimidin-4-ol]",–
6.00 to 7.00,6.00 to 7.00,"CN(c1ccccc1)c1ccc(Oc2nc(O)c3ccncc3n2)cc1 [Example 5, 2-[4-(Methyl-phenyl-amino)-phenoxy]-pyrido[3,4-d]pyrimidin-4-ol]",–
< 5.00,6.00 to 7.00,"CN(c1ccc(Oc2nc(O)c3ccncc3n2)cc1)c1ccc(S(C)(=O)=O)cc1 [Example 57, 2-[4-(N-methyl-4-methylsulfonylanilino)phenoxy]pyrido[3,4-d]pyrimidin-4-ol]",–
≥ 7.00,5.00 to 6.00,"CCN(c1ccc(Oc2nc(O)c3ccncc3n2)cc1)c1ccc(C(C)C)cc1 [Example 117, 2-(4-(ethyl(4-isopropylphenyl)amino)phenoxy)pyrido[3,4-d]pyrimidin-4-ol]",–
< 5.00,≥ 7.00,"CCc1ccc(N(C)c2ccc(Oc3nc(O)c4ccncc4n3)cc2)cc1OCCN(C)C [Example 65, 2-[4-[3-[2-(dimethylamino)ethoxy]-4-ethyl-N-methylanilino]phenoxy]pyrido[3,4-d]pyrimidin-4-ol]",–
5.00 to 6.00,6.00 to 7.00,"CC(C)c1ccc(N(C)c2ccc(Oc3nc(O)c4ccncc4n3)cc2)cn1 [Example 109, 2-[4-[methyl-(6-propan-2-ylpyridin-3-yl)amino]phenoxy]pyrido[3,4-d]pyrimidin-4-ol]",–
6.00 to 7.00,6.00 to 7.00,"CN(c1ccc(Oc2nc(O)c3ccncc3n2)cc1)c1ccc(C2CC2)cc1 [Example 42, 2-{4-[(4-cyclopropyl-phenyl)-methyl-amino]-phenoxy}-pyrido[3,4-d]pyrimidin-4-ol]",–
< 5.00,5.00 to 6.00,"Oc1nc(Oc2ccc(N3CCC(c4ccccc4)C3)cc2)nc2cnccc12 (stereo not shown) [Example 54, 2-[4-(3-phenylpyrrolidin-1-yl)phenoxy]pyrido[3,4-d]pyrimidin-4-ol]",–
≥ 7.00,6.00 to 7.00,"COCCN(C)CC(C)c1ccc(N(C)c2ccc(Oc3nc(O)c4ccncc4n3)cc2)cc1 (stereo not shown) [Example 38, 2-{4-[(4-{2-[(2-methoxy-ethyl)-methyl-amino]-1-methyl-ethyl}-phenyl)-methyl-amino]-phenoxy}-pyrido[3,4-d]pyrimidin-4-ol]",–
< 5.00,≥ 7.00,"Oc1nc(Oc2ccc3c(ccn3C3CCNCC3)c2)nc2cnccc12 [Example 104, 2-(1-piperidin-4-ylindol-5-yl)oxypyrido[3,4-d]pyrimidin-4-ol]",–
< 5.00,≥ 7.00,"CC(CCN(C)C)c1ccc(N(C)c2ccc(Oc3nc(O)c4ccncc4n3)cc2)cc1 (stereo not shown) [Example 115, 2-(4-{[4-(3-dimethylamino-1-methyl-propyl)-phenyl]-methyl-amino}-phenoxy)-pyrido[3,4-d]pyrimidin-4-ol]",–
6.00 to 7.00,6.00 to 7.00,"CN(c1ccc(Oc2nc(O)c3ccncc3n2)cc1)c1ccc(C(C)(C)O)cc1 [Example 64, 2-[4-[4-(2-hydroxypropan-2-yl)-N-methylanilino]phenoxy]pyrido[3,4-d]pyrimidin-4-ol]",–
6.00 to 7.00,5.00 to 6.00,"CN(c1ccc(Oc2nc(O)c3ccncc3n2)cc1)c1ccc(C(F)(F)F)cc1 [Example 87, 2-[4-[N-methyl-4-(trifluoromethyl)anilino]phenoxy]pyrido[3,4-d]pyrimidin-4-ol]",–
6.00 to 7.00,6.00 to 7.00,"COCC(C)c1ccc(N(C)c2ccc(Oc3nc(O)c4ccncc4n3)cc2)cc1 (stereo not shown) [Example 29, 2-(4-{[4-(2-methoxy-1-methyl-ethyl)-phenyl]-methyl-amino}-phenoxy)-pyrido[3,4-d]pyrimidin-4-ol]",–
6.00 to 7.00,6.00 to 7.00,"CN(c1ccc(Oc2nc(O)c3ccncc3n2)cc1)c1ccc(C(C)(C)CO)cc1 [Example 68, 2-[4-[4-(1-hydroxy-2-methylpropan-2-yl)-N-methylanilino]phenoxy]pyrido[3,4-d]pyrimidin-4-ol]",–

SMILES,pIC50 ([1]; Homo sapiens),pIC50 [2],pIC50 [1]
CN(c1ccc(Oc2nc(O)c3ccncc3n2)cc1)c1ccccc1F [Example 96],–,6.00 to 7.00,5.00 to 6.00
